Bridge positions count the residues as written; N and C are the ends. Square brackets hold non-standard residues; d marks the D form. Peptide text beside a SMILES is read from it. d2Nal = N[C@H](Cc1ccc2ccccc2c1)C(=O)O; Nle = CCCC[C@H](N)C(=O)O
Target: T1, hMC4R (Homo sapiens, UniProt P32245)
Test: Lanthanide-based competitive binding assay
Conditions: not given

T1 sequence (P32245 whole entry): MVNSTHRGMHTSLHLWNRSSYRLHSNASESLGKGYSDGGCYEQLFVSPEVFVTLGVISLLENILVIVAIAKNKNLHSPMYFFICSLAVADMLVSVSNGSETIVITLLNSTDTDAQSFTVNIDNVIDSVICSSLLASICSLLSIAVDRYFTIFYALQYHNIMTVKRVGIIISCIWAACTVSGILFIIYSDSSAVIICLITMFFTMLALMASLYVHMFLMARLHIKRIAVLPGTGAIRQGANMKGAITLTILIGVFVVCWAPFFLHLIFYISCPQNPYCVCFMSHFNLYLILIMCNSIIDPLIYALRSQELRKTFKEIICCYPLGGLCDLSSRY

EC50 [nM] | Molecule
~50 | CCCC[C@H](NC(=O)[C@H](CO)NC(C)=O)C(=O)N[C@@H](CCC(=O)O)C(=O)N[C@@H](Cc1c[nH]cn1)C(=O)N[C@H](Cc1ccccc1)C(=O)N[C@@H](CCCNC(=N)N)C(=O)N[C@@H](Cc1c[nH]c2ccccc12)C(N)=O [MSH(7), Ac-Ser-Nle-Glu-His-D-Phe-Arg-Trp-NH2] (Ac-S[Nle]EH[dF]RW-NH2)

Same assay, conditions: SEM

EC50 [nM] | Molecule
1.58 | CCCC[C@H](NC(=O)CNC(=O)[C@@H]1CCCN1C(=O)CNC(=O)[C@@H]1CCCN1C(=O)CNC(=O)[C@@H]1CCCN1C(=O)CNC(=O)[C@@H]1CCCN1C(=O)CNC(=O)[C@@H]1CCCN1C(=O)CNC(=O)[C@@H]1CCCN1C(=O)CNC(=O)[C@@H]1CCCN1C(=O)CNC(=O)[C@@H]1CCCN1C(=O)CNC(=O)[C@@H]1CCCN1C(=O)CNC(=O)[C@@H]1CCCN1C(=O)CNC(=O)[C@@H]1CCCN1C(=O)CNC(=O)[C@@H]1CCCN1C(=O)[C@H](Cc1c[nH]c2ccccc12)NC(=O)[C@H](CCCNC(=N)N)NC(=O)[C@@H](Cc1ccccc1)NC(=O)[C@H](Cc1c[nH]cn1)NC(=O)[C@H](CCC(=O)O)NC(=O)[C@H](CCCC)NC(=O)[C@H](CO)NC(C)=O)C(=O)N[C@H]1CC(=O)NCCCC[C@@H](C(N)=O)NC(=O)[C@H](Cc2c[nH]c3ccccc23)NC(=O)[C@H](CCCNC(=N)N)NC(=O)[C@@H](Cc2ccc3ccccc3c2)NC(=O)[C@H](Cc2c[nH]cn2)NC1=O [compound 15, Ac-MSH(7)-(Pro-Gly)12-SHU9119-NH2] (Ac-S[Nle]EH[dF]RWPGPGPGPGPGPGPGPGPGPGPGPG[Nle]DH[d2Nal]RWK-NH2; lactam 33-38)
1.38 | CCCC[C@H](NC(=O)COCC(=O)NCCCOCCOCCOCCCNC(=O)CNC(=O)[C@@H]1CCCN1C(=O)CNC(=O)[C@@H]1CCCN1C(=O)CNC(=O)[C@@H]1CCCN1C(=O)COCC(=O)NCCCOCCOCCOCCCNC(=O)[C@H](Cc1c[nH]c2ccccc12)NC(=O)[C@H](CCCNC(=N)N)NC(=O)[C@@H](Cc1ccccc1)NC(=O)[C@H](Cc1c[nH]cn1)NC(=O)[C@H](CCC(=O)O)NC(=O)[C@H](CCCC)NC(=O)[C@H](CO)NC(C)=O)C(=O)N[C@H]1CC(=O)NCCCC[C@@H](C(N)=O)NC(=O)[C@H](Cc2c[nH]c3ccccc23)NC(=O)[C@H](CCCNC(=N)N)NC(=O)[C@@H](Cc2ccc3ccccc3c2)NC(=O)[C@H](Cc2c[nH]cn2)NC1=O [compound 16, Ac-MSH(7)-PEGO-(Pro-Gly)3-PEGO-SHU9119-NH2]
1.86 | CCCC[C@H](NC(=O)COCC(=O)NCCCOCCOCCOCCCNC(=O)[C@H](Cc1c[nH]c2ccccc12)NC(=O)[C@H](CCCNC(=N)N)NC(=O)[C@@H](Cc1ccccc1)NC(=O)[C@H](Cc1c[nH]cn1)NC(=O)[C@H](CCC(=O)O)NC(=O)[C@H](CCCC)NC(=O)[C@H](CO)NC(C)=O)C(=O)N[C@H]1CC(=O)NCCCC[C@@H](C(N)=O)NC(=O)[C@H](Cc2c[nH]c3ccccc23)NC(=O)[C@H](CCCNC(=N)N)NC(=O)[C@@H](Cc2ccc3ccccc3c2)NC(=O)[C@H](Cc2c[nH]cn2)NC1=O [compound 17, Ac-MSH(7)-PEGO-SHU9119-NH2]
1.7 | CCCC[C@H](NC(=O)COCC(=O)NCCCOCCOCCOCCCNC(=O)COCC(=O)NCCCOCCOCCOCCCNC(=O)[C@H](Cc1c[nH]c2ccccc12)NC(=O)[C@H](CCCNC(=N)N)NC(=O)[C@@H](Cc1ccccc1)NC(=O)[C@H](Cc1c[nH]cn1)NC(=O)[C@H](CCC(=O)O)NC(=O)[C@H](CCCC)NC(=O)[C@H](CO)NC(C)=O)C(=O)N[C@H]1CC(=O)NCCCC[C@@H](C(N)=O)NC(=O)[C@H](Cc2c[nH]c3ccccc23)NC(=O)[C@H](CCCNC(=N)N)NC(=O)[C@@H](Cc2ccc3ccccc3c2)NC(=O)[C@H](Cc2c[nH]cn2)NC1=O [compound 18, Ac-MSH(7)-PEGO-PEGO-SHU9119-NH2]

Target: T1, hMC4R
Test: not given
Conditions: binding to hMC4R, MSH(7) ligands; cited from earlier work

Molecule | EC50 [nM]
Ac-(Pro-Gly)6- MSH(7)-NH2 (Ac-PGPGPGPGPGPGS[Nle]EH[dF]RW-NH2; SMILES CCCC[C@H](NC(=O)[C@H](CO)NC(=O)CNC(=O)[C@@H]1CCCN1C(=O)CNC(=O)[C@@H]1CCCN1C(=O)CNC(=O)[C@@H]1CCCN1C(=O)CNC(=O)[C@@H]1CCCN1C(=O)CNC(=O)[C@@H]1CCCN1C(=O)CNC(=O)[C@@H]1CCCN1C(C)=O)C(=O)N[C@@H](CCC(=O)O)C(=O)N[C@@H](Cc1c[nH]cn1)C(=O)N[C@H](Cc1ccccc1)C(=O)N[C@@H](CCCNC(=N)N)C(=O)N[C@@H](Cc1c[nH]c2ccccc12)C(N)=O) [compound 19] | 82 ± 12
Ac-(Pro-Gly)9- MSH(7)-NH2 (Ac-PGPGPGPGPGPGPGPGPGS[Nle]EH[dF]RW-NH2; SMILES CCCC[C@H](NC(=O)[C@H](CO)NC(=O)CNC(=O)[C@@H]1CCCN1C(=O)CNC(=O)[C@@H]1CCCN1C(=O)CNC(=O)[C@@H]1CCCN1C(=O)CNC(=O)[C@@H]1CCCN1C(=O)CNC(=O)[C@@H]1CCCN1C(=O)CNC(=O)[C@@H]1CCCN1C(=O)CNC(=O)[C@@H]1CCCN1C(=O)CNC(=O)[C@@H]1CCCN1C(=O)CNC(=O)[C@@H]1CCCN1C(C)=O)C(=O)N[C@@H](CCC(=O)O)C(=O)N[C@@H](Cc1c[nH]cn1)C(=O)N[C@H](Cc1ccccc1)C(=O)N[C@@H](CCCNC(=N)N)C(=O)N[C@@H](Cc1c[nH]c2ccccc12)C(N)=O) [compound 20] | 236 ± 24
Ac-(Pro-Gly)12- MSH(7)-NH2 (Ac-PGPGPGPGPGPGPGPGPGPGPGPGS[Nle]EH[dF]RW-NH2; SMILES CCCC[C@H](NC(=O)[C@H](CO)NC(=O)CNC(=O)[C@@H]1CCCN1C(=O)CNC(=O)[C@@H]1CCCN1C(=O)CNC(=O)[C@@H]1CCCN1C(=O)CNC(=O)[C@@H]1CCCN1C(=O)CNC(=O)[C@@H]1CCCN1C(=O)CNC(=O)[C@@H]1CCCN1C(=O)CNC(=O)[C@@H]1CCCN1C(=O)CNC(=O)[C@@H]1CCCN1C(=O)CNC(=O)[C@@H]1CCCN1C(=O)CNC(=O)[C@@H]1CCCN1C(=O)CNC(=O)[C@@H]1CCCN1C(=O)CNC(=O)[C@@H]1CCCN1C(C)=O)C(=O)N[C@@H](CCC(=O)O)C(=O)N[C@@H](Cc1c[nH]cn1)C(=O)N[C@H](Cc1ccccc1)C(=O)N[C@@H](CCCNC(=N)N)C(=O)N[C@@H](Cc1c[nH]c2ccccc12)C(N)=O) [compound 21] | 188 ± 25
Ac-MSH(7)-(Pro-Gly)6- MSH(7)-NH2 (Ac-S[Nle]EH[dF]RWPGPGPGPGPGPGS[Nle]EH[dF]RW-NH2; SMILES CCCC[C@H](NC(=O)[C@H](CO)NC(C)=O)C(=O)N[C@@H](CCC(=O)O)C(=O)N[C@@H](Cc1c[nH]cn1)C(=O)N[C@H](Cc1ccccc1)C(=O)N[C@@H](CCCNC(=N)N)C(=O)N[C@@H](Cc1c[nH]c2ccccc12)C(=O)N1CCC[C@H]1C(=O)NCC(=O)N1CCC[C@H]1C(=O)NCC(=O)N1CCC[C@H]1C(=O)NCC(=O)N1CCC[C@H]1C(=O)NCC(=O)N1CCC[C@H]1C(=O)NCC(=O)N1CCC[C@H]1C(=O)NCC(=O)N[C@@H](CO)C(=O)N[C@@H](CCCC)C(=O)N[C@@H](CCC(=O)O)C(=O)N[C@@H](Cc1c[nH]cn1)C(=O)N[C@H](Cc1ccccc1)C(=O)N[C@@H](CCCNC(=N)N)C(=O)N[C@@H](Cc1c[nH]c2ccccc12)C(N)=O) [compound 22] | 11 ± 2
